Laboratory results published in patent publication US20150037375A1, “DOPING AGENTS AND POLYMERIC COMPOSITIONS THEREOF FOR CONTROLLED DRUG DELIVERY” (TRUSTEES OF BOSTON UNIVERSITY ET AL, priority 2011, published 2015).
≈ marks a conversion by molar mass, not a printed value.

Legend:
[1] = system: HT-29 colorectal cancer cells; assay: In vitro cytotoxicity (MTS/MTT) of drug-loaded meshes, HT-29 cells
Experimental: (§1) The meshes contained either 0.01, 0.1, or 1.0 w/w % drug (SN38 or CPT-11). The camptothecin release from these meshes was tested using a cell viability assay following 24 hour treatments with camptothecin-loaded or unloaded meshes. […] Individual camptothecin-loaded and unloaded meshes were placed in permeable filter supports (Polyester membrane insert, 3.0 μm pore size; Corning Incorporated, Corning, N.Y.) and maintained in SPM. Medium was changed periodically to ensure continued drug release. […] At designated time points, subconfluent cells were harvested and seeded on 12-well plates at 30,000 cells/well in SPM. After 24 hours, filter supports and meshes were transferred from holding wells to the wells containing tumor cells in 2 mL of fresh SPM. After 24 hours of co-incubation with tumor cells, films were returned to holding wells in fresh SPM until the subsequent time point. Five days after treatment, tumor cell viability was measured using a colorimetric MTT (3-(4,5-dimethyl-2-thiazolyl)-2,5-diphenyltetrazolium bromide) cell proliferation assay (Sigma, St. Louis, Mo.). Cell viability was calculated as the percentage of the positive control absorbance for each cell line at each time point.

[2] = Lactone form of SN-38 released from meshes; conditions: control, bolus of SN-38 added to pH 6.4 PBS for an hour
Experimental: An additional release study was performed to determine if the active form of SN-38 was preserved within electrospun meshes.

[3] = system: Lewis Lung Carcinoma (LLC) cells; assay: Cell viability (MTT) after 24 hour treatments with drug-loaded meshes, LLC cells
Experimental: as §1

In the case of `CCc1c2c(nc3ccc(O)cc13)-c1cc3c(c(=O)n1C2)COC(=O)[C@]3(O)CC` [SN-38, 7-ethyl-10-hydroxycamptothecin], the IC50 [1] is reported as 3.4 ng/mL (≈ 8.66 nM), the “SN-38 remaining in the active lactone form” value [2] is reported as 73% and the IC-50 [3] is reported as “≈ 8 ng/mL”.
